Legend:
Type in all cases: functional
Rhodococcus rhodochrous [1] = assay: Antibacterial activity against Rhodococcus rhodochrous MTCC 265 at 5 mg/ml after 24 hrs by Kirby-Bauer single disc susceptibility test; details: MTCC 265, 24 h, read-out: DIZ
Escherichia coli [2] = assay: Antibacterial activity against Escherichia coli DH5[alpha] at 5 mg/ml after 24 hrs by Kirby-Bauer single disc susceptibility test; details: read-out: DIZ
Rhodococcus rhodochrous [3] = assay: Antibacterial activity against Rhodococcus rhodochrous MTCC 265 at 2.5 mg/ml after 24 hrs by Kirby-Bauer single disc susceptibility test; details: MTCC 265, 24 h, read-out: DIZ
Escherichia coli [4] = assay: Antibacterial activity against Escherichia coli DH5[alpha] at 2.5 mg/ml after 24 hrs by Kirby-Bauer single disc susceptibility test; details: read-out: DIZ

Compound | zone of inhibition at 5000 µg/mL (Rhodococcus rhodochrous [1]) | zone of inhibition at 5000 µg/mL (Escherichia coli [2]) | zone of inhibition at 2500 µg/mL (Rhodococcus rhodochrous [3]) | zone of inhibition at 2500 µg/mL (Escherichia coli [4])
Cn1c(O)c(C(=O)/C=C/c2ccc(OCc3cn(-c4ccc(F)cc4)nn3)cc2)c(=O)n(C)c1=O | 0 mm | 0 mm | 0 mm | 0 mm
Cn1c(O)c(C(=O)/C=C/c2ccc(OCc3cn(-c4ccccc4)nn3)cc2)c(=O)n(C)c1=O | 3 mm | 3 mm | 4 mm | 4 mm
COc1cccc(-n2cc(COc3ccc(/C=C/C(=O)c4c(O)n(C)c(=O)n(C)c4=O)cc3)nn2)c1 | 2 mm | 3.5 mm | 3 mm | 3 mm
Cc1cccc(-n2cc(COc3ccc(/C=C/C(=O)c4c(O)n(C)c(=O)n(C)c4=O)cc3)nn2)c1 | 2 mm | 2 mm | 3 mm | 2 mm
Cn1c(O)c(C(=O)/C=C/c2ccc(OCc3cn(-c4ccc(Br)cc4)nn3)cc2)c(=O)n(C)c1=O | 2 mm | 0 mm | 3 mm | 0 mm
Cn1c(O)c(C(=O)/C=C/c2ccc(OCc3cn(-c4ccc(Cl)cc4)nn3)cc2)c(=O)n(C)c1=O | 0 mm | 0 mm | 0 mm | 0 mm
Cn1c(O)c(C(=O)/C=C/c2ccc(OCc3cn(Cc4ccccc4)nn3)cc2)c(=O)n(C)c1=O | 2 mm | 0 mm | 2 mm | 0 mm
COc1ccc(-n2cc(COc3ccc(/C=C/C(=O)c4c(O)n(C)c(=O)n(C)c4=O)cc3)nn2)cc1 | 2 mm | 0 mm | 2 mm | 0 mm

— ChEMBL document CHEMBL3046713, “Synthesis and antimicrobial activity of pyrimidine chalcones” (2013)
